According to US12115147B2, “Formulations and methods related to eye irritation” (Lebrun Labs LLC, priority 2020, dated 2024):
Like-named read-outs stand apart in the source and are kept apart here.

Tests used:
[1] = OS2 (OPTISAFE2), OPTISAFE formulation with antioxidants; details: for OS2 Cons: majority prediction of the triplicate assays; for OS2 R1 / 0S2 R1: repeat 1, with antioxidants; for OS2 R1 / OS2 R3 / 0S2 R1: predicted GHS class; for OS2 R3: repeat 3, with antioxidants
[2] = no antioxidants, predicted GHS class, cited from earlier work
[3] = pH 6.36
rabbit eye = details: cited from earlier work
[4] = Table 7B, consensus of past application domain study
[5] = Table 7B, based on the Draize data
[6] = Table 7A, based on the Draize data
[7] = Table 7A, consensus of past transferability study

## CC(C)(O)CCC(C)(C)O
[1]; Table 7B
  OS2 Cons: 1
  OS2 R1: 2
  OS2 R3: 1

## O=C(Cl)c1c(Cl)cccc1Cl [2,6-Dichlorobenzoyl chloride]
[2]; [4]
  OS Cons: 1
[3]
  OS2 Cons: 1
  OS2 R1: 1
  OS2 R3: 1
Rabbit eye; [5]
  In vivo GHS: 2A (2A (reversal by 7 days))

## Nc1ncccc1O [2-Amino-3-pyridinol]
[2]; [4]
  OS Cons: CNM
Rabbit eye; [5]
  In vivo GHS: 2A (2A (reversal by 7 days))

## CCCC(C)CO (stereo not shown) [2-Methyl-1-pentanol]
[3]
  0S2 R1: 2
  OS2 Cons: 2
  OS2 R3: 2
Rabbit eye; [6]
  In vivo GHS: 2B (2B (reversal by 14 days))

## O=C(O)CCSSCCC(=O)O [3,3-Dithiodipropionic acid]
[1]; Table 7A
  OS2 Cons: 1
  0S2 R1: 1
  OS2 R3: 1

## O=C=Nc1ccc(Cl)c(Cl)c1 [3,4-Dichlorophenyl isocyanate]
[2]; [7]
  OS Cons: 1
[1]; Table 7A
  OS2 Cons: 1
  0S2 R1: 1
  OS2 R3: 1
Rabbit eye; [6]
  In vivo GHS: 1 (1 (no reversal by 21 days))

## N#CCCCl [3-Chloropropionitrile]
Rabbit eye; [5]
  In vivo GHS: 2B (2B (reversal by 14 days))

## OCc1cccc(Oc2ccccc2)c1 [3-Phenoxybenzyl alcohol]
[2]; [4]
  OS Cons: 2
[3]
  OS2 Cons: 2
  OS2 R1: 2
  OS2 R3: 2

## Cc1ncnc2nc[nH]c12 [6-Methyl purine]
[1]; Table 7B
  OS2 Cons: 2/1
  OS2 R1: 2/1
  OS2 R3: 1
Rabbit eye; [5]
  In vivo GHS: 2B (2B (reversal by 14 days))

## CC(C)=O [Acetone]
[2]; [4]
  OS Cons: 2
[1]; Table 7B
  OS2 Cons: 2
  OS2 R1: 2
  OS2 R3: 2
Rabbit eye; [5]
  In vivo GHS: 2A (2A (reversal by 7 days))

## C=CCO [Allyl alcohol]
[2]; [4]
  OS Cons: 1
[1]; Table 7B
  OS2 Cons: 1
  OS2 R1: 1
  OS2 R3: 1
Rabbit eye; [5]
  In vivo GHS: 2A (2A (reversal by 7 days))

## CCCCC(CC)COC(=O)CC(C(=O)OCC(CC)CCCC)S(=O)(=O)[O-].[Na+] (stereo not shown) [Butanedioic acid, sulfo-, 1,4-bis(2-ethylhexyl) ester, sodium salt]
[2]; [4]
  OS Cons: 2
[3]
  OS2 Cons: 2
  OS2 R1: 2
  OS2 R3: 2
Rabbit eye; [5]
  In vivo GHS: 1 (1 (no reversal by 21 days))

## C=C1C2CCC(C2)C1(C)C (stereo not shown) [Camphene]
[3]
  0S2 R1: 2
  OS2 Cons: 2
  OS2 R3: 2

## OC1CCCCC1 [Cyclohexanol]
Rabbit eye; Table 3, eye irritation class
  in vivo GHS: 1 (1 (no reversal by 21 days))
Rabbit eye; Table 4
  GHS: Cat. 1
Rabbit eye; [5]
  In vivo GHS: 1 (1 (no reversal by 21 days))

## OC1CCCC1 [Cyclopentanol]
[2]; [4]
  OS Cons: 1
[3]
  OS2 Cons: 1
  OS2 R1: 1
  OS2 R3: 1
Rabbit eye; [5]
  In vivo GHS: 2A (2A (reversal by 7 days))

## O=P(O)(OCc1ccccc1)OCc1ccccc1 [Dibenzyl phosphate]
[1]; Table 7A
  OS2 Cons: 1
  0S2 R1: 1
  OS2 R3: 1

## CCCCCCCCOCCCCCCCC [Dioctyl ether]
Rabbit eye; rabbit, in vivo
  known ocular irritancy (FIG. 4 legend): Nonirritants

## CCOC(=O)C(C)C(C)=O (stereo not shown) [Ethyl-2-methyl acetoacetate]
[2]; [4]
  OS Cons: 1
[1]; Table 7B
  OS2 Cons: 1
  OS2 R1: 1
  OS2 R3: 1
Rabbit eye; [5]
  In vivo GHS: 2B (2B (reversal by 14 days))

## c1c[nH]cn1 [Imidazole]
Rabbit eye; rabbit, in vivo
  In vivo GHS: 1 (key: NC (not classified as an irritant); 2A (reversal by 7 days); 2B (reversal by 14 days); 1 (no reversal by 21 days))

## CC(C)CO [Isobutanol]
[2]; [7]
  OS Cons: 1
[3]
  0S2 R1: 1
  OS2 Cons: 1
  OS2 R3: 1
Rabbit eye; [6]
  In vivo GHS: 2A (2A (reversal by 7 days))

## CC(C)C=O [Isobutyraldehyde]
[3]
  OS2 Cons: 1
  OS2 R3: 1
Rabbit eye; rabbit, in vivo
  In vivo GHS: 2B (key: NC (not classified as an irritant); 2A (reversal by 7 days); 2B (reversal by 14 days); 1 (no reversal by 21 days))

## CC(C)O [Isopropanol]
[2]; [4]
  OS Cons: 2
[3]
  OS2 Cons: 2
  OS2 R1: 2
  OS2 R3: 2
Rabbit eye; [5]
  In vivo GHS: 2A (2A (reversal by 7 days))

## CC(=O)CC(=O)OC(C)C [Isopropyl acetoacetate]
[2]; [4]
  OS Cons: 1
[3]
  OS2 Cons: 1
  OS2 R1: 1
  OS2 R3: 1
Rabbit eye; [5]
  In vivo GHS: 2B (2B (reversal by 14 days))

## CCCCCCCCCCCCCC(=O)OC(C)C [Isopropyl myristae]
Rabbit eye; rabbit, in vivo
  known ocular irritancy (FIG. 4 legend): Nonirritants

## CC(O)C(=O)O (stereo not shown) [Lactic Acid]
Rabbit eye; rabbit, in vivo
  In vivo GHS: 1 (key: NC (not classified as an irritant); 2A (reversal by 7 days); 2B (reversal by 14 days); 1 (no reversal by 21 days))

## CCCCCCCCCCCC(=O)O [Lauric acid]
[2]; [4]
  OS Cons: 1
[3]
  OS2 Cons: 1
  OS2 R1: 1
  OS2 R3: 1
Rabbit eye; [5]
  In vivo GHS: 1 (1 (no reversal by 21 days))

## S=C([S-])NCCNC(=S)[S-].[Mn+2] [Maneb (solid), Maneb]
Rabbit eye; rabbit, in vivo
  In vivo GHS: 2B (key: NC (not classified as an irritant); 2A (reversal by 7 days); 2B (reversal by 14 days); 1 (no reversal by 21 days))

## COC(C)=O [Methyl acetate]
[2]; [4]
  OS Cons: 2
[3]
  OS2 Cons: 2
  OS2 R1: 2
  OS2 R3: 2
Rabbit eye; [5]
  In vivo GHS: 2A (2A (reversal by 7 days))
Rabbit eye; rabbit, in vivo
  known ocular irritancy (FIG. 4 legend): Irritants

## COC(=O)CC#N [Methyl cyanoacetate]
[2]; [7]
  OS Cons: 1
[3]
  0S2 R1: 1
  OS2 Cons: 1
  OS2 R3: 1
Rabbit eye; [6]
  In vivo GHS: 2A (2A (reversal by 7 days))

## CCCOCC(C)O (stereo not shown) [Propasol solvent P]
[2]; [7]
  OS Cons: 2
[1]; Table 7A
  OS2 Cons: 2
  0S2 R1: 2
  OS2 R3: 2
Rabbit eye; [6]
  In vivo GHS: 2A (2A (reversal by 7 days))

## CC(C=O)Cc1ccc(C(C)(C)C)cc1 (stereo not shown) [Protectol PP]
[1]; Table 7B
  OS2 Cons: 1
  OS2 R1: 1
  OS2 R3: 1

## O=C([O-])CCl.[Na+] [Sodium chloroacetate]
Rabbit eye; [6]
  In vivo GHS: 2B (2B (reversal by 14 days))

## O.O.O.O.[Na+].[O-]B1OO1 [Sodium perborate tetrahydrate]
[1]; Table 7B
  OS2 Cons: 1
  OS2 R1: 1
  OS2 R3: 1

## O=C(Nc1ccc(Cl)cc1)Nc1ccc(Cl)c(Cl)c1 [Triclocarban]
[2]; [4]
  OS Cons: CNM
[1]; Table 7B
  OS2 Cons: CNM
  OS2 R1: CNM
  OS2 R3: CNM

## O=C1CCCO1 [gamma-Butyrolactone]
[2]; [4]
  OS Cons: 2
[1]; Table 7B
  OS2 Cons: 2
  OS2 R1: 2
  OS2 R3: 2
Rabbit eye; [5]
  In vivo GHS: 2A (2A (reversal by 7 days))

## CCCCCCO [n-Hexanol]
[2]; [4]
  OS Cons: 2
[3]
  OS2 Cons: 2
  OS2 R1: 2
  OS2 R3: 1
Rabbit eye; [5]
  In vivo GHS: 2A (2A (reversal by 7 days))

## CCCCCCBr [n-Hexyl bromide]
Rabbit eye; rabbit, in vivo
  known ocular irritancy (FIG. 4 legend): Nonirritants

## CCCCCCCCO [n-Octanol]
[2]; [4]
  OS Cons: 2
[3]
  OS2 Cons: 2
  OS2 R1: 2
  OS2 R3: 2
  OS2 score average: 19.1
  OS2 scores ranged from: 16.5-22.8
  Score = Average score: 19.1
Rabbit eye; [5]
  In vivo GHS: 2A (2A (reversal by 7 days))
Rabbit eye; rabbit, in vivo
  known ocular irritancy (FIG. 4 legend): Irritants

## Cc1ccc(C=S)cc1 [p-Methyl thiobenzaldehyde]
[2]; [4]
  OS Cons: 1
[3]
  OS2 Cons: 1
  OS2 R1: 1
  OS2 R3: 1

## Sodium lauroyl sarcosinate [Sodium lauroyl sarcosinate (10%)]
[1]; due to assay inhibition
  OS2 result, expanded surfactant study: CNM
